Measured values from paper PMC6268314, “Diterpenoids from the Buds of Pinus banksiana Lamb” (Molecules, 2012).

What follows are molecules tested on DLD-1, human colorectal adenocarcinoma cell line (assay: Cytotoxicity assay (Hoechst DNA assay), DLD-1). Settings: Homo sapiens, DLD-1; extracts and fractions; concentration inhibiting 50% cell growth; 48 h; mean of three independent assays.
Type: cell-based
Procedure: (§1) P. banksiana buds were extracted successively with hexanes, CH2Cl2 and MeOH. After solvent evaporation, each extract was investigated for in vitro cytotoxic and antibacterial activities. Cytotoxic activity evaluations were carried out on lung cancer (A549), colorectal cancer (DLD-1) and normal skin fibroblasts (WS1) human cell lines using the Hoechst assay. Antibacterial activity was evaluated against Escherichia coli and Staphylococcus aureus. […] Therefore, following studies were focused on the CH2Cl2 extract that was further separated over column chromatography on silica gel to afford eleven fractions (A–K). All fractions activities were tested against both cancer cell lines and bacterial strains. […] In a next step, fractions F, G, H and K were separated by a combination of chromatographic procedures to afford the three new compounds 1–3 together with 12 known compounds. The structures of the new compounds were determined as follows and the known products were identified by comparison of their spectroscopic data with values found in the literature.
(§2) Lung carcinoma (A549), colorectal adenocarcinoma (DLD-1) and normal skin fibroblast (WS1) human cell lines were obtained from the American Type Culture Collection (ATCC). All cell lines were cultured in minimum essential medium containing Earle’s salts and L-glutamine (Mediatech Cellgro, VA, USA), to which were added 10% fetal bovine serum (Hyclone), vitamins (1X), penicillin (100 I.U./mL) and streptomycin (100 µg/mL), essential amino acids (1X) and sodium pyruvate (1X) (Mediatech Cellgro, VA). Cells were kept at 37 °C in a humidified environment containing 5% CO2. Antibacterial activity was tested on Escherichia coli ATCC 25922 and Staphylococcus aureus ATCC 25923E.
(§3) Exponentially growing cells were plated on 96-well microplates (BD Falcon) at a density of 5 × 10^3 cells per well in 100 μL of culture medium (DMEM with 10% SVF) and were allowed to adhere for 24 h before treatment. Increasing concentrations of each compound in MeOH or DMSO were then added (100 μL per well) and cells were incubated for 48 h. The final concentration of MeOH or DMSO in the culture medium was maintained at 0.25% (v/v) to avoid solvent toxicity. Microplates were then emptied and stored at −80 °C for 24 h. In a next step, 100 μL of SDS (0.01%) were added and the microplates were incubated at room temperature during 3 h before being put back to the cold. After 24 h, cells were prepared for cellular DNA assay with 100 μL of Hoechst dye 33342. Measurements were performed on the same labsystems at 365 and 460 nm wavelengths. Survival percentage was defined as the fluorescene in experimental wells compared to the control wells after subtraction of the blank values. Etoposide was used as positive control. Each experiment was carried out two times in triplicata. IC50 results were expressed as averaged values and the corresponding standard deviations were computed.

Structure (SMILES) | IC50
COc1cc([C@@H]2c3cc4c(cc3[C@@H](O[C@@H]3O[C@@H]5CO[C@@H](C)O[C@H]5[C@H](O)[C@H]3O)[C@H]3COC(=O)[C@H]23)OCO4)cc(OC)c1O [Etoposide, reference compound] | 1.7 ± 0.3 µg/mL

Same assay, conditions: Homo sapiens, DLD-1; isolated compounds; concentration inhibiting 50% cell growth; 48 h; mean of three independent assays

Structure (SMILES) | IC50
C=C(C)c1ccc2c(c1)[C@H](O)CC1[C@](C)(C(=O)O)CCC[C@]21C (stereo partly drawn) [Compound 1, 7α-hydroxyabieta-8,11,13,15-tetraen-18-oic acid] | > 100 µM
CC(C)(O)c1ccc2c(c1)C(O)CC1C(C)(CO)CCCC21C (stereo not drawn) [Compound 2, 7β,15,18-trihydroxyabieta-8,11,13-triene] | > 100 µM
C[C@@]1(CO)CCC[C@]2(C)c3ccc(O)cc3CCC12 (some centres unmarked) [Compound 3] | > 100 µM
CC(C)(O)c1ccc2c(c1)[C@H](O)CC1[C@](C)(C=O)CCC[C@]21C (stereo partly drawn) [Compound 4, 7α,15-dihydroxyabieta-8,11,13-trien-18-al] | > 100 µM
CC(C)(O)c1ccc2c(c1)[C@H](O)CC1[C@](C)(C(=O)O)CCC[C@]21C (stereo partly drawn) [Compound 5, 7α,15-dihydroxydehydroabietic acid] | > 100 µM
CC(C)(O)c1ccc2c(c1)[C@@H](O)CC1[C@](C)(C(=O)O)CCC[C@]21C (stereo partly drawn) [Compound 6, 7β,15-dihydroxydehydroabietic acid] | > 100 µM
CC(C)(O)c1ccc2c(c1)CC[C@H]1[C@](C)(C(=O)O)CCC[C@]21C [Compound 7, 15-hydroxydehydroabietic acid] | > 100 µM
COc1cc([C@@H]2c3cc4c(cc3[C@@H](O[C@@H]3O[C@@H]5CO[C@@H](C)O[C@H]5[C@H](O)[C@H]3O)[C@H]3COC(=O)[C@H]23)OCO4)cc(OC)c1O [Etoposide, reference compound] | 2.9 ± 0.5 µM

Each molecule was assayed on Staphylococcus aureus ATCC 25923 (assay: Antibacterial microdilution assay (resazurin), S. aureus). Settings: ATCC25923, isolated compounds, 6 h at 37 °C.
Type: cell-based
Procedure: as §2
(§4) Antibacterial activity was evaluated using the microdilution method described by Banfi et al. with some modifications. Exponentially growing bacteria were plated in 96-well flat bottom microplates (BD Flacon) at a density of 5 × 10^3 gram-negative E. coli (ATCC 25922) or 40 × 10^3 gram-positive S. aureus (ATCC 25923) per well in 100 μL nutrient broth (Difco). The concentration of ethanol in the culture medium was maintained at 0.25% (v/v) to avoid solvent toxicity. Thereafter, 50 μL of 4% resazurin was added to each well and the microplates were incubated for 6 h at 37 °C. Fluorescence was measured after 6 h with an automated 96-well Fluoroskan Ascent Fl™ plate reader (Labsystems) using 530 and 590 nm excitation and emission wavelengths.

Structure (SMILES) | IC50
C=C(C)c1ccc2c(c1)[C@H](O)CC1[C@](C)(C(=O)O)CCC[C@]21C (stereo partly drawn) [Compound 1, 7α-hydroxyabieta-8,11,13,15-tetraen-18-oic acid] | > 100 µM
CC(C)(O)c1ccc2c(c1)[C@H](O)CC1[C@](C)(C=O)CCC[C@]21C (stereo partly drawn) [Compound 4, 7α,15-dihydroxyabieta-8,11,13-trien-18-al] | > 100 µM
CC(C)(O)c1ccc2c(c1)[C@H](O)CC1[C@](C)(C(=O)O)CCC[C@]21C (stereo partly drawn) [Compound 5, 7α,15-dihydroxydehydroabietic acid] | > 100 µM
CC(C)(O)c1ccc2c(c1)[C@@H](O)CC1[C@](C)(C(=O)O)CCC[C@]21C (stereo partly drawn) [Compound 6, 7β,15-dihydroxydehydroabietic acid] | > 100 µM

Results, then the molecule that gave them:

IC50 | Structure (SMILES)
> 100 µM | CC(C)(O)c1ccc2c(c1)C(O)CC1C(C)(CO)CCCC21C (stereo not drawn) [Compound 2, 7β,15,18-trihydroxyabieta-8,11,13-triene]
> 100 µM | C[C@@]1(CO)CCC[C@]2(C)c3ccc(O)cc3CCC12 (some centres unmarked) [Compound 3]
> 100 µM | CC(C)(O)c1ccc2c(c1)CC[C@H]1[C@](C)(C(=O)O)CCC[C@]21C [Compound 7, 15-hydroxydehydroabietic acid]

These molecules were tested on A549, human lung carcinoma cell line (assay: Cytotoxicity assay (Hoechst DNA assay), A549). Settings: Homo sapiens, A549; extracts and fractions; concentration inhibiting 50% cell growth; 48 h; mean of three independent assays.
Type: cell-based
Procedure: as §1, §2, §3

Structure (SMILES) | IC50
COc1cc([C@@H]2c3cc4c(cc3[C@@H](O[C@@H]3O[C@@H]5CO[C@@H](C)O[C@H]5[C@H](O)[C@H]3O)[C@H]3COC(=O)[C@H]23)OCO4)cc(OC)c1O [Etoposide, reference compound] | 0.4 ± 0.2 µg/mL

Same assay, conditions: Homo sapiens, A549; isolated compounds; concentration inhibiting 50% cell growth; 48 h; mean of three independent assays

Structure (SMILES) | IC50
C=C(C)c1ccc2c(c1)[C@H](O)CC1[C@](C)(C(=O)O)CCC[C@]21C (stereo partly drawn) [Compound 1, 7α-hydroxyabieta-8,11,13,15-tetraen-18-oic acid] | > 100 µM
CC(C)(O)c1ccc2c(c1)C(O)CC1C(C)(CO)CCCC21C (stereo not drawn) [Compound 2, 7β,15,18-trihydroxyabieta-8,11,13-triene] | > 100 µM
C[C@@]1(CO)CCC[C@]2(C)c3ccc(O)cc3CCC12 (some centres unmarked) [Compound 3] | > 100 µM
CC(C)(O)c1ccc2c(c1)[C@H](O)CC1[C@](C)(C=O)CCC[C@]21C (stereo partly drawn) [Compound 4, 7α,15-dihydroxyabieta-8,11,13-trien-18-al] | > 100 µM
CC(C)(O)c1ccc2c(c1)[C@H](O)CC1[C@](C)(C(=O)O)CCC[C@]21C (stereo partly drawn) [Compound 5, 7α,15-dihydroxydehydroabietic acid] | > 100 µM
CC(C)(O)c1ccc2c(c1)[C@@H](O)CC1[C@](C)(C(=O)O)CCC[C@]21C (stereo partly drawn) [Compound 6, 7β,15-dihydroxydehydroabietic acid] | > 100 µM
CC(C)(O)c1ccc2c(c1)CC[C@H]1[C@](C)(C(=O)O)CCC[C@]21C [Compound 7, 15-hydroxydehydroabietic acid] | 98 ± 2 µM
COc1cc([C@@H]2c3cc4c(cc3[C@@H](O[C@@H]3O[C@@H]5CO[C@@H](C)O[C@H]5[C@H](O)[C@H]3O)[C@H]3COC(=O)[C@H]23)OCO4)cc(OC)c1O [Etoposide, reference compound] | 0.7 ± 0.3 µM

The molecules below were run on WS1, human normal skin fibroblasts (assay: Cytotoxicity assay (Hoechst DNA assay), WS1). Settings: Skin fibroblast, extracts and fractions, concentration inhibiting 50% cell growth, 48 h, mean of three independent assays.
Type: cell-based
Procedure: as §1, §2
as §3, with “Each experiment was carried out two times in triplicata.” left out

Structure (SMILES) | IC50
COc1cc([C@@H]2c3cc4c(cc3[C@@H](O[C@@H]3O[C@@H]5CO[C@@H](C)O[C@H]5[C@H](O)[C@H]3O)[C@H]3COC(=O)[C@H]23)OCO4)cc(OC)c1O [Etoposide, reference compound] | 5.9 ± 0.6 µg/mL

Same assay, conditions: Skin fibroblast, isolated compounds, concentration inhibiting 50% cell growth, 48 h, mean of three independent assays

Structure (SMILES) | IC50
C=C(C)c1ccc2c(c1)[C@H](O)CC1[C@](C)(C(=O)O)CCC[C@]21C (stereo partly drawn) [Compound 1, 7α-hydroxyabieta-8,11,13,15-tetraen-18-oic acid] | > 100 µM
CC(C)(O)c1ccc2c(c1)C(O)CC1C(C)(CO)CCCC21C (stereo not drawn) [Compound 2, 7β,15,18-trihydroxyabieta-8,11,13-triene] | > 100 µM
C[C@@]1(CO)CCC[C@]2(C)c3ccc(O)cc3CCC12 (some centres unmarked) [Compound 3] | > 100 µM
CC(C)(O)c1ccc2c(c1)[C@H](O)CC1[C@](C)(C=O)CCC[C@]21C (stereo partly drawn) [Compound 4, 7α,15-dihydroxyabieta-8,11,13-trien-18-al] | > 100 µM
CC(C)(O)c1ccc2c(c1)[C@H](O)CC1[C@](C)(C(=O)O)CCC[C@]21C (stereo partly drawn) [Compound 5, 7α,15-dihydroxydehydroabietic acid] | > 100 µM
CC(C)(O)c1ccc2c(c1)[C@@H](O)CC1[C@](C)(C(=O)O)CCC[C@]21C (stereo partly drawn) [Compound 6, 7β,15-dihydroxydehydroabietic acid] | > 100 µM
CC(C)(O)c1ccc2c(c1)CC[C@H]1[C@](C)(C(=O)O)CCC[C@]21C [Compound 7, 15-hydroxydehydroabietic acid] | > 100 µM
COc1cc([C@@H]2c3cc4c(cc3[C@@H](O[C@@H]3O[C@@H]5CO[C@@H](C)O[C@H]5[C@H](O)[C@H]3O)[C@H]3COC(=O)[C@H]23)OCO4)cc(OC)c1O [Etoposide, reference compound] | 10 ± 2 µM

Each molecule was assayed on Escherichia coli ATCC 25922 (assay: Antibacterial microdilution assay (resazurin), E. coli). Settings: ATCC25922, isolated compounds, 6 h at 37 °C.
Type: cell-based
Procedure: as §2, §4

Structure (SMILES) | IC50
C=C(C)c1ccc2c(c1)[C@H](O)CC1[C@](C)(C(=O)O)CCC[C@]21C (stereo partly drawn) [Compound 1, 7α-hydroxyabieta-8,11,13,15-tetraen-18-oic acid] | > 100 µM
CC(C)(O)c1ccc2c(c1)[C@H](O)CC1[C@](C)(C=O)CCC[C@]21C (stereo partly drawn) [Compound 4, 7α,15-dihydroxyabieta-8,11,13-trien-18-al] | > 100 µM
CC(C)(O)c1ccc2c(c1)[C@H](O)CC1[C@](C)(C(=O)O)CCC[C@]21C (stereo partly drawn) [Compound 5, 7α,15-dihydroxydehydroabietic acid] | > 100 µM
CC(C)(O)c1ccc2c(c1)[C@@H](O)CC1[C@](C)(C(=O)O)CCC[C@]21C (stereo partly drawn) [Compound 6, 7β,15-dihydroxydehydroabietic acid] | > 100 µM

The next lines start with the values.

IC50 | Structure (SMILES)
> 100 µM | CC(C)(O)c1ccc2c(c1)C(O)CC1C(C)(CO)CCCC21C (stereo not drawn) [Compound 2, 7β,15,18-trihydroxyabieta-8,11,13-triene]
> 100 µM | C[C@@]1(CO)CCC[C@]2(C)c3ccc(O)cc3CCC12 (some centres unmarked) [Compound 3]
> 100 µM | CC(C)(O)c1ccc2c(c1)CC[C@H]1[C@](C)(C(=O)O)CCC[C@]21C [Compound 7, 15-hydroxydehydroabietic acid]
